# Laboratory results reported in PubChem BioAssay (NCI).
#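 48-hour exposure; five concentrations; linearly interpolated endpoints. At the TGI there is no net growth.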
# How the values were obtained:
# Assay in all cases: DTP human tumour cell line panel, 48 h
# UACC-62 melanoma = system: UACC-62 melanoma
# HOP-92 NSCLC = system: HOP-92 NSCLC
# SW-620 colon = system: SW-620 colon
# A498 renal = system: A498 renal
# DU-145 prostate = system: DU-145 prostate
# NCI-H460 lung = system: NCI-H460 lung
# K-562 leukemia = system: K-562 leukemia
# MOLT-4 leukemia = system: MOLT-4 leukemia
# OVCAR-5 ovarian = system: OVCAR-5 ovarian
# HOP-62 NSCLC = system: HOP-62 NSCLC
# MDA-MB-435 = system: MDA-MB-435
# M14 melanoma = system: M14 melanoma
# EKVX NSCLC = system: EKVX NSCLC
# HS 578T breast = system: HS 578T breast
# SK-MEL-5 melanoma = system: SK-MEL-5 melanoma
# 786-0 renal = system: 786-0 renal
# HT29 colon = system: HT29 colon
# CAKI-1 renal = system: CAKI-1 renal
# NCI-H522 lung = system: NCI-H522 lung
# LOX IMVI melanoma = system: LOX IMVI melanoma
Compound,TGI (UACC-62 melanoma) [µM],TGI (HOP-92 NSCLC) [µM],TGI (SW-620 colon) [µM],TGI (A498 renal) [µM],TGI (DU-145 prostate) [µM],TGI (NCI-H460 lung) [µM],TGI (K-562 leukemia) [µM],TGI (MOLT-4 leukemia) [µM],TGI (OVCAR-5 ovarian) [µM],TGI (HOP-62 NSCLC) [µM],TGI (MDA-MB-435) [µM],TGI (M14 melanoma) [µM],TGI (EKVX NSCLC) [µM],TGI (HS 578T breast) [µM],TGI (SK-MEL-5 melanoma) [µM],TGI (786-0 renal) [µM],TGI (HT29 colon) [µM],TGI (CAKI-1 renal) [µM],TGI (NCI-H522 lung) [µM],TGI (LOX IMVI melanoma) [µM]
Cc1ccc(S(=O)(=O)N2CCSCCSCCSCCN(S(=O)(=O)c3ccc(C)cc3)CC2)cc1,> 100,> 100,> 100,> 100,> 100,> 100,> 100,> 100,> 100,> 100,> 100,> 100,> 100,> 100,> 100,> 100,> 100,–,–,–
Nc1ccccc1C(=O)N=Nc1c(O)[nH]c2ccccc12,> 100,–,–,> 100,> 100,> 100,> 100,> 100,> 100,> 100,> 100,> 100,> 100,73.8,> 100,> 100,> 100,> 100,> 100,–
C=C1C(=O)O[C@H]2C1C[C@H](O)[C@@]1(C)OC1CC[C@@]1(C)O[C@H]21 (stereo not given in full),28.2,36.5,33.2,–,> 100,> 100,19.7,29.8,31.5,73.3,53.2,30.6,38.4,> 100,35.4,37.1,> 100,33.5,11.9,–
O=C1CSC(c2ccccc2O)N1c1ccc(-n2c(-c3ccccc3)nc3ccccc3c2=O)cc1 (stereo not given),90.3,76.5,> 100,> 100,> 100,50.8,> 100,> 100,> 100,77.5,81.5,> 100,–,> 100,35.9,> 100,> 100,> 100,66,69
C[C@@H]1CC[C@H]2[C@H](C)C(OC3O[C@@H]4O[C@@]5(C)CC[C@H]6[C@H](C)CC[C@@H]([C@@H]3C)[C@@]46O5)O[C@@H]3O[C@@]4(C)CC[C@@H]1[C@]32O4 (stereo not given in full),> 100,–,> 100,> 100,> 100,> 100,> 100,> 100,> 100,> 100,> 100,> 100,> 100,> 100,> 100,> 100,> 100,> 100,> 100,> 100
CCOC(=O)c1c[nH]c(C(=O)C=[N+]=[N-])c1C1CCN(CC)C1=S (stereo not given),> 100,> 100,> 100,> 100,> 100,> 100,> 100,> 100,> 100,> 100,> 100,> 100,> 100,> 100,> 100,> 100,> 100,> 100,> 100,–
Cc1ccc(C(=O)Oc2ccccc2)cc1N=NN(C)C,> 100,> 100,> 100,–,> 100,> 100,> 100,> 100,> 100,> 100,> 100,> 100,> 100,> 100,> 100,> 100,> 100,> 100,> 100,> 100
O=c1[nH][nH]c(=O)c2c1ccc1oc3ccccc3c12,> 100,> 100,> 100,> 100,> 100,> 100,> 100,> 100,> 100,> 100,> 100,> 100,> 100,> 100,> 100,> 100,> 100,> 100,> 100,–
CC(=O)/C(=C\I)c1ccccc1,3.96,4.74,2.82,32.3,15.3,24.7,4.61,5.35,2.99,46.9,12.8,4.4,33.3,40.5,–,4.13,2.29,–,–,3.59
O=c1c(Sc2c(SCSc3cnc4ccccc4c3Sc3c[nH]c4ccccc4c3=O)cnc3ccccc23)c[nH]c2ccccc12,> 100,> 100,> 100,–,> 100,> 100,–,> 100,> 100,> 100,> 100,> 100,> 100,> 100,> 100,> 100,> 100,> 100,> 100,> 100
O=C1NC2(CCNCC2)Oc2ccccc21,> 100,> 100,> 100,–,> 100,> 100,> 100,> 100,> 100,> 100,> 100,> 100,> 100,> 100,> 100,> 100,> 100,> 100,> 100,> 100
Cc1ccc(S(=O)(=O)N/N=C2/CCC3(O)CC2(C)CCC2[C@H]3CC2(C)C)cc1 (stereo not given in full),60,87.6,> 100,–,> 100,64.3,90.7,45.2,78.1,> 100,57.7,> 100,> 100,> 100,33.1,> 100,99.5,> 100,91.9,28.6
